Data: US12617767B2, “Crystalline forms of somatostatin modulators” (Crinetics Pharmaceuticals, Inc., priority 2019, dated 2026)
Marks after values point to notes of the source that are not given here.

Experiments:
Assay type in all cases: physicochemical
[1] = Stability of XRPD pattern on drying; details: for XRPD pattern upon drying: dimesylate
Experimental: Short term slurries were carried out at two temperatures in 14 solvents. About 25 mg solid was added to a 2 mL vial followed by 0.70 mL of solvent. If all solids dissolved, more solid was added until a slurry was formed within reason. Slurries were stirred at constant temperature for four days (ambient temperature, 21-23° C.; or high temperature, 50° C.). After stirring for four days, solids were allowed to settle and were then recovered for XRPD analysis. XRPD analysis was performed on the wet cake, and if a new pattern was observed, the sample was dried in a vacuum oven at 50° C. for a minimum of 4 hours, then the dried sample was analyzed by XRPD.
Stability on Drying: A sample of Pattern B was prepared on an XRPD sample holder and analysed by XRPD to create a baseline. The disk was then left in a vacuum oven at 50° C. under static vacuum for 3 days. On the third day, the sample was removed from the oven and the “dry” pattern was recorded immediately.
(§1) Compound A⋅2MSA (Pattern A) was slurried in EtOH overnight at room temperature (ca. 16 hours). […] The bulk was dried in a vacuum oven at 50° C. under dynamic vacuum for 4.5 hours. The dried solids were removed from the oven and a “dry” XRPD analysis was collected.

[2] = Kinetic solubility studies in FaSSIF and FeSSIF; details: FeSSIF
Experimental: The solubility of the dimesylate (Pattern B) and mono-HCl salts of Compound A was determined in FaSSIF (pH 6.5) at 37° C. after a slurry time of 5, 20 and 40 minutes. FaSSIF was warmed to 37° C. and added to a vial of ca. 9 mg of the salt to mark t=0. The mixture was kept stirring at 37° C. and a sample drawn with a syringe at t+5, 20 and 40 minutes. The samples were syringe filtered and the filtrate was diluted 2× to ensure no precipitation while waiting for HPLC analysis. The pH of the solution collected at 40 minutes was measured. The slurry was sampled again the following day and the supernatant from syringe filtration was analyzed directly by HPLC without dilution. The same experiment was run with FeSSIF (pH 5.0).

[3] = Storage at ambient conditions (XRPD)
Experimental: Characterization after storage under ambient conditions: Pattern B was left at ambient conditions (21-22° C., 10-40% RH) for a week then characterized by)(RFD, TGA/DSC, and water content measured by Karl-Fischer titration. […] The water content was confirmed by KF titration which yielded a value of 4.20 wt. %.
Compound A⋅2MSA (Pattern A, 0.2622 g) was added to a 20 mL vial with a stir bar. Fifteen volumes (3.93 mL) of EtOH was added and the slurry was stirred overnight (˜20 hours). The slurry was sampled to confirm the correct pattern was generated, then the solids were collected by filtration. The resultant yellow solid was dried in a vacuum oven at 50° C. under dynamic vacuum for 2 hours, then under static vacuum overnight (˜16 hours) to yield 0.2015 g (77% yield). The in-situ sample drawn was dried for 3 hours then the solid was used for characterization by solution ^1H-NMR spectroscopy and simultaneous TGA/DSC. The bulk was dried overnight and used for stand-alone DSC, and thermal treatment.
as §1
Compound A⋅2MSA (Pattern A, 0.2659 g) was added to a 20 mL vial with a stir bar. Twenty-five volumes (6.65 mL) of ACN was added and the slurry was stirred overnight (˜20 hours). The slurry was sampled to confirm the correct pattern was generated, then the solids were collected by filtration. The resultant yellow solid was dried in a vacuum oven at 50° C. under dynamic vacuum for 2 hours, then under static vacuum overnight (˜16 hours) to yield 0.2255 g (85% yield). The sample drawn was dried for 3 hours then the solid was used for characterization by solution ^1H-NMR spectroscopy and simultaneous TGA/DSC. The bulk was dried overnight and used for stand-alone DSC.

[4] = Equilibrium solubility in simulated fluids and water at 37° C.; details: for comments / Concentration: 24 hrs; for Concentration: mg of Compound A (free base); for Concentration / pH (24 hr): dimesylate
Experimental: The solubility Compound A⋅2MSA, Patterns A, B and I, was measured in water, fasted state simulated gastric fluid (FaSSGF) and fasted state simulated intestinal fluid (FaSSIF) at 37° C. by slurrying in the respective media for 24 hours. 1.5 mL of the fluid was stirred at 37° C. About 5 mg of the specified solid was added to FaSSIF and a thin slurry was immediately formed. As a test, approximately 80 and 60 mg of Pattern A was added to 1.5 mL of water and FaSSGF, respectively without formation of a slurry. Therefore, about 10 mg of the desired Pattern was added to water and FaSSGF solutions. The samples were allowed to stir at 37° C. for 24 hrs. The stir bars were removed from the FaSSIF vials and the solids allowed to settle for 0.5 hours at 37° C. The supernatant/solutions were syringe filtered and recovered for analysis by HPLC as well as for pH measurement.

[5] = Dynamic Vapor Sorption (DVS); details: between 2% and 95% Relative Humidity (RH); dimesylate
Experimental: Dynamic Vapor Sorption (DVS) was done using a DVS Intrinsic 1. The sample is loaded into a sample pan and suspended from a microbalance. A typical sample mass for DVS measurement is 25 mg. Nitrogen gas bubbled through distilled water provides the desired relative humidity.
A typical measurement comprises the steps: • 1—Equilibrate at 50% RH • 2-50% to 2%. (50%, 40%, 30%, 20%, 10% and 2%) • a. Hold minimum of 5 mins and maximum of 240 minutes at each humidity. The pass criteria is less than 0.002% change • 3-2% to 95% (2%, 10%, 20%, 30%, 40%, 50%, 60%, 70%, 80%, 90%, 95%) • a. Hold minimum of 5 mins and maximum of 240 minutes at each humidity. The pass criteria is less than 0.002% change • 4-95% to 2% (95%, 80%, 70%, 60%, 50%, 40%, 30%, 20%, 10%, 2%) • a. Hold minimum of 5 mins and maximum of 240 minutes at each humidity. The pass criteria is less than 0.002% change • 5-2% to 50% (2%, 10%, 20%, 30%, 40%, 50%) • a. Hold minimum of 5 mins and maximum of 240 minutes at each humidity. The pass criteria is less than 0.002% change Dynamic Vapor Sorption Isotherm Plots of Solid Forms of Compound A⋅2MSA

[6] = solids from short term slurries, vacuum oven at 50° C., minimum of 4 hours
[7] = solids from amorphous slurry or antisolvent experiments

## CS(=O)(=O)O.CS(=O)(=O)O.N#Cc1cccc(-c2ccc3ncc(-c4cc(F)cc(F)c4)c(N4CCC(N)CC4)c3c2)c1O [Pattern E, 3-(4-(4-aminopiperidin-1-yl)-3-(3,5-difluorophenyl)quinolin-6-yl)-2-hydroxybenzonitrile dimesylate]
[1]; [6]
  XRPD pattern upon drying: converted to Pattern A

## CS(=O)(=O)O.CS(=O)(=O)O.N#Cc1cccc(-c2ccc3ncc(-c4cc(F)cc(F)c4)c(N4CCC(N)CC4)c3c2)c1O [Pattern H, 3-(4-(4-aminopiperidin-1-yl)-3-(3,5-difluorophenyl)quinolin-6-yl)-2-hydroxybenzonitrile dimesylate]
[1]; [6]
  XRPD pattern upon drying: converted to Pattern I

## CS(=O)(=O)O.CS(=O)(=O)O.N#Cc1cccc(-c2ccc3ncc(-c4cc(F)cc(F)c4)c(N4CCC(N)CC4)c3c2)c1O [Pattern O, 3-(4-(4-aminopiperidin-1-yl)-3-(3,5-difluorophenyl)quinolin-6-yl)-2-hydroxybenzonitrile dimesylate]
[1]; [7]
  XRPD pattern upon drying: stable upon drying

## CS(=O)(=O)O.CS(=O)(=O)O.N#Cc1cccc(-c2ccc3ncc(-c4cc(F)cc(F)c4)c(N4CCC(N)CC4)c3c2)c1O [Pattern F, 3-(4-(4-aminopiperidin-1-yl)-3-(3,5-difluorophenyl)quinolin-6-yl)-2-hydroxybenzonitrile dimesylate]
[1]; [6]
  XRPD pattern upon drying: converted to Pattern I

## CS(=O)(=O)O.CS(=O)(=O)O.N#Cc1cccc(-c2ccc3ncc(-c4cc(F)cc(F)c4)c(N4CCC(N)CC4)c3c2)c1O [Pattern D, 3-(4-(4-aminopiperidin-1-yl)-3-(3,5-difluorophenyl)quinolin-6-yl)-2-hydroxybenzonitrile dimesylate]
[1]; [6]
  XRPD pattern upon drying: converted to Pattern A

## CS(=O)(=O)O.CS(=O)(=O)O.N#Cc1cccc(-c2ccc3ncc(-c4cc(F)cc(F)c4)c(N4CCC(N)CC4)c3c2)c1O [Compound A⋅2MSA, 3-(4-(4-aminopiperidin-1-yl)-3-(3,5-difluorophenyl)quinolin-6-yl)-2-hydroxybenzonitrile dimesylate]
[2]
  solubility relative to the HCl salt: 12 ×

## CS(=O)(=O)O.CS(=O)(=O)O.N#Cc1cccc(-c2ccc3ncc(-c4cc(F)cc(F)c4)c(N4CCC(N)CC4)c3c2)c1O [Pattern C, 3-(4-(4-aminopiperidin-1-yl)-3-(3,5-difluorophenyl)quinolin-6-yl)-2-hydroxybenzonitrile dimesylate]
[3]; 24 hours
  XRPD pattern of wet sample left at ambient conditions: did not change
[3]; bulk, 6 days at ambient conditions, dimesylate
  XRPD pattern after storage at ambient conditions: a pattern resembling Pattern I
[4]; FaSSGF (pH 1.70)
  comments: dissolved
  pH (24 hr): 1.84
[4]; FaSSGF (pH 1.70), above calibration range
  Concentration: >7.75^b mg/mL
[4]; FaSSIF (pH 6.48)
  comments: disproportionated
  Concentration: 0.010 mg/mL
  pH (24 hr): 6.06
[4]; water
  comments: dissolved
  pH (24 hr): 3.09
[4]; water, above calibration range
  Concentration: >6.59^b mg/mL
[1]; [6]
  XRPD pattern upon drying: stable upon drying
[1]; vacuum oven at 50° C. under dynamic vacuum for 4.5 hours
  XRPD pattern after drying: a combination of Patterns C and I

## CS(=O)(=O)O.CS(=O)(=O)O.N#Cc1cccc(-c2ccc3ncc(-c4cc(F)cc(F)c4)c(N4CCC(N)CC4)c3c2)c1O [Pattern N, 3-(4-(4-aminopiperidin-1-yl)-3-(3,5-difluorophenyl)quinolin-6-yl)-2-hydroxybenzonitrile dimesylate]
[1]; [7]
  XRPD pattern upon drying: stable upon drying

## CS(=O)(=O)O.CS(=O)(=O)O.N#Cc1cccc(-c2ccc3ncc(-c4cc(F)cc(F)c4)c(N4CCC(N)CC4)c3c2)c1O [Pattern M, 3-(4-(4-aminopiperidin-1-yl)-3-(3,5-difluorophenyl)quinolin-6-yl)-2-hydroxybenzonitrile dimesylate]
[1]; [7]
  XRPD pattern upon drying: lost crystallinity upon drying

## CS(=O)(=O)O.CS(=O)(=O)O.N#Cc1cccc(-c2ccc3ncc(-c4cc(F)cc(F)c4)c(N4CCC(N)CC4)c3c2)c1O [Pattern A, 3-(4-(4-aminopiperidin-1-yl)-3-(3,5-difluorophenyl)quinolin-6-yl)-2-hydroxybenzonitrile dimesylate]
[5]
  reversible water uptake (DVS): 9.8 % w/w
[4]; FaSSGF
  amount added to 1.5 mL without formation of a slurry: ~60 mg
[4]; water
  amount added to 1.5 mL without formation of a slurry: approximately 80 mg
[1]; [6]
  XRPD pattern upon drying: stable upon drying

## CS(=O)(=O)O.CS(=O)(=O)O.N#Cc1cccc(-c2ccc3ncc(-c4cc(F)cc(F)c4)c(N4CCC(N)CC4)c3c2)c1O [Pattern G, 3-(4-(4-aminopiperidin-1-yl)-3-(3,5-difluorophenyl)quinolin-6-yl)-2-hydroxybenzonitrile dimesylate]
[1]; [6]
  XRPD pattern upon drying: converted to Pattern I
